Laboratory results: PubChem BioAssay (NCI)
Where “and” joins values, the source holds several entries; their conditions need not be identical. Equal entries are not always repeated.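 Method: 48-hour compound exposure of cells in 96-well plates, five concentrations, linear interpolation of endpoints. The concentration for 50% growth inhibition is given as GI50. TGI: concentration producing complete growth inhibition.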

What was measured:
Test in all cases: growth of human tumour cells (NCI), 48 h
ACHN renal = system: ACHN renal
SR leukemia = system: SR leukemia
U251 CNS = system: U251 CNS
K-562 leukemia = system: K-562 leukemia
MDA-MB-231 breast = system: MDA-MB-231 breast
DU-145 prostate = system: DU-145 prostate
TK-10 renal = system: TK-10 renal
UACC-62 melanoma = system: UACC-62 melanoma
NCI-H460 lung = system: NCI-H460 lung
A498 renal = system: A498 renal

Compound	GI50 (ACHN renal)	TGI (ACHN renal)	GI50 (SR leukemia)	TGI (SR leukemia)	GI50 (U251 CNS)	TGI (U251 CNS)	GI50 (K-562 leukemia)	TGI (K-562 leukemia)	GI50 (MDA-MB-231 breast)	TGI (MDA-MB-231 breast)	GI50 (DU-145 prostate)	TGI (DU-145 prostate)	GI50 (TK-10 renal)	TGI (TK-10 renal)	GI50 (UACC-62 melanoma)	TGI (UACC-62 melanoma)	GI50 (NCI-H460 lung)	TGI (NCI-H460 lung)	GI50 (A498 renal)	TGI (A498 renal)
CCN(CC)c1ccc(/C=C2/NC(=O)NC2=O)cc1	26.5 µM	> 100 µM	605 nM	> 100 µM	6050 nM	> 100 µM	671 nM	> 100 µM	28.7 µM	> 100 µM	5.7 µM	32.6 µM	9.56 µM	> 100 µM	1800 nM	12.9 µM	4440 nM	> 100 µM	7.44 µM	> 89.3 µM
CCn1c(-c2nonc2N)nc2c(C#CC(C)(C)O)ncc(OCC3CCNCC3)c21	8.13 µM	> 25 µM	8080 nM	24.4 µM	3990 nM	> 25 µM	> 25000 nM	> 25 µM	> 25 µM	> 25 µM	8.15 µM	> 25 µM	8.28 µM	> 25 µM	8020 nM	> 25 µM	18200 nM	> 25 µM	0.384 µM	12.7 µM
CCN1CCN(c2nc(NNC(=O)c3cccc(OC)c3)nc(N3CCN(C(c4ccccc4)c4ccccc4)CC3)n2)CC1	1.93 µM	3.77 µM	926 nM	3.81 µM	–	–	2790 nM	> 100 µM	1.87 µM	3.58 µM	2.67 µM	7.29 µM	1.78 µM	3.55 µM	1840 nM	3.71 µM	1750 nM	3.39 µM	3.73 µM	15.3 µM
Fc1ccc(-c2ncn(C3CCNCC3)c2-c2ccnc(Oc3ccc(Oc4ccccc4)cc3)n2)cc1	3.77 µM	7.19 µM	2100 nM	6.42 µM	3560 nM	7.18 µM	1950 nM	5.74 µM	3.71 µM	7.17 µM	4.2 µM	7.75 µM	4.35 µM	7.98 µM	4290 nM	7.78 µM	3660 nM	7.28 µM	3.57 µM	7.01 µM
CCCCCCCC(=O)O[C@H]1[C@H]2[C@@H](CC1(C)C)C(=O)[C@]13O[C@H]1C(=O)[C@]1(CO1)[C@]23C	–	4.09 µM	–	> 38.7 µM	5800 nM	11.9 µM and 22.8 µM	1520 nM	5.13 µM and 5.3 µM	–	44.5 µM	–	27.9 µM	–	6.47 µM	6470 nM	20.8 µM and 7.29 µM	20000 nM	42.6 µM and 12.8 µM	21.6 µM	36.1 µM and 22.8 µM
COC(=O)[C@@H](C)C[C@H](Cc1ccccc1)NC(=O)c1csc([C@@H](C[C@H](C(C)C)N(C)C(=O)[C@@H](NC(=O)CN(C)C)C2CC2)OC(C)=O)n1	0.0938 µM	> 16.5 µM	1.65 nM	> 16.5 µM	55 nM	> 16.5 µM	2.99 nM	> 16.5 µM	0.0858 µM	> 16.5 µM	0.0169 µM	–	0.659 µM	> 16.5 µM	11.2 nM	> 16.5 µM	29.1 nM	> 16.5 µM	0.304 µM	> 7.5 µM
O=C(N/N=C\c1cc(Br)cc(Br)c1O)N/N=C/c1cc(Br)cc(Br)c1O	4.06 µM	13.5 µM	1130 nM	26.7 µM	2140 nM	15.7 µM	700 nM	14.3 µM	4.18 µM	17.5 µM	4.63 µM	15.5 µM	10.6 µM	26.2 µM	1800 nM	10.2 µM	3110 nM	11.5 µM	7.81 µM	22.8 µM
O=C(Nc1ccc(Oc2cccc(Cl)c2)c(Cl)c1)c1cccnc1	4.06 µM	> 50 µM	395 nM	> 50 µM	2230 nM	18 µM	255 nM	> 50 µM	6.25 µM	46 µM	2.15 µM	36 µM	3.16 µM	40.1 µM	3890 nM	> 50 µM	1880 nM	19.1 µM	1.52 µM	4.68 µM
COc1cc2cc(C(=O)N3C[C@H](CCl)c4c3cc(O)c3ccccc43)[nH]c2c(OC)c1OC	–	0.581 µM	–	0.0672 µM	19 nM	3.23 µM and 3.06 µM	46 nM	–	–	3.94 µM	< 0.01 µM	1.53 µM and 0.213 µM	0.0571 µM	> 100 µM	35.1 nM	–	< 10 nM	4.34 µM and 23.5 µM	–	0.684 µM
c1ccc(-c2nn(-c3ccccc3)[n+](-c3ccccc3-c3ccccc3)n2)cc1	5.38 µM	> 100 µM	1220 nM	10.9 µM	533 nM	61.8 µM	456 nM	15.3 µM	0.235 µM	9.21 µM	3.11 µM	> 71.7 µM	4.35 µM	21.5 µM	740 nM	14.9 µM	1040 nM	8.6 µM	1.65 µM	9.04 µM
Nc1ccc(Sc2ccc3c4c2cccc4c(=O)n2c4ccccc4nc32)cc1	2.37 µM	10.2 µM	1600 nM	33.1 µM	4130 nM	20.6 µM	4930 nM	> 100 µM	5.31 µM	30 µM	3.8 µM	14.1 µM	–	–	2480 nM	16.1 µM	1900 nM	14.3 µM	3.67 µM	57.9 µM
Clc1ccc2c(NCCNc3nc(Cl)nc4ccccc34)ccnc2c1	1.61 µM	3 µM	268 nM	0.866 µM	–	–	255 nM	0.614 µM	0.36 µM	1.21 µM	1.26 µM	2.59 µM	1.95 µM	3.46 µM	1810 nM	3.49 µM	536 nM	1.83 µM	1.87 µM	3.52 µM
